According to PubChem BioAssay AID1918994 (Molecular Pharmacology Branch, DTP, NCI, 2023):

system: 292921-168-R-J2-PDC complex spheroid growth; assay: Anticancer human tumor 292921-168-R-J2-PDC patient-derived pancreatic carcinoma cell line growth inhibition [AhR]; details: second compound 0.1 µM; first compound 0.316 µM; hits give low values
Procedure, shortened: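 Complex tumor spheroids co-cultured with HUVEC and human MSC stroma; AhR antagonists tested in combination with standard-of-care and investigational agents. Top concentration at or near clinical Cmax (else 10 microM), half-log dilutions; growth expressed as percent test/control.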
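Also: spheroids exposed to compounds for seven days after three days of growth.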

SMILES | viability, T/C [%]
Nc1ncn(C2CC(O)C(CO)O2)c(=O)n1 (centres undefined) + Cc1cncc(-c2nc(NCCc3c[nH]c4ccccc34)c3ncn(C(C)C)c3n2)c1 | 80.6

same assay, conditions: second compound 0.1 µM; first compound 1 µM; hits give low values

SMILES | viability, T/C [%]
COc1cc(C2c3cc4c(cc3C(OC3OC5COC(C)OC5C(O)C3O)C3COC(=O)C23)OCO4)cc(OC)c1O (centres undefined) + Cc1cncc(-c2nc(NCCc3c[nH]c4ccccc34)c3ncn(C(C)C)c3n2)c1 | 34.1
COc1cccc2c1C(=O)c1c(O)c3c(c(O)c1C2=O)CC(O)(C(=O)CO)CC3OC1CC(N)C(O)C(C)O1 (centres undefined) + Cc1cncc(-c2nc(NCCc3c[nH]c4ccccc34)c3ncn(C(C)C)c3n2)c1 | 0.21
Nc1ccn(C2OC(CO)C(O)C2(F)F)c(=O)n1 (centres undefined) + Cc1cncc(-c2nc(NCCc3c[nH]c4ccccc34)c3ncn(C(C)C)c3n2)c1 | 9.84
Nc1ncn(C2CC(O)C(CO)O2)c(=O)n1 (centres undefined) + Cc1cncc(-c2nc(NCCc3c[nH]c4ccccc34)c3ncn(C(C)C)c3n2)c1 | 65.6

same assay, conditions: second compound 0.1 µM; first compound 3.16 µM; hits give low values

SMILES | viability, T/C [%]
COc1cc(C2c3cc4c(cc3C(OC3OC5COC(C)OC5C(O)C3O)C3COC(=O)C23)OCO4)cc(OC)c1O (centres undefined) + Cc1cncc(-c2nc(NCCc3c[nH]c4ccccc34)c3ncn(C(C)C)c3n2)c1 | 24.2
COc1cccc2c1C(=O)c1c(O)c3c(c(O)c1C2=O)CC(O)(C(=O)CO)CC3OC1CC(N)C(O)C(C)O1 (centres undefined) + Cc1cncc(-c2nc(NCCc3c[nH]c4ccccc34)c3ncn(C(C)C)c3n2)c1 | 0.78
Nc1ccn(C2OC(CO)C(O)C2(F)F)c(=O)n1 (centres undefined) + Cc1cncc(-c2nc(NCCc3c[nH]c4ccccc34)c3ncn(C(C)C)c3n2)c1 | 9.57

same assay, conditions: second compound 0.1 µM; first compound 10 µM; hits give low values

SMILES | viability, T/C [%]
COc1cc(C2c3cc4c(cc3C(OC3OC5COC(C)OC5C(O)C3O)C3COC(=O)C23)OCO4)cc(OC)c1O (centres undefined) + Cc1cncc(-c2nc(NCCc3c[nH]c4ccccc34)c3ncn(C(C)C)c3n2)c1 | 13.3
COc1cccc2c1C(=O)c1c(O)c3c(c(O)c1C2=O)CC(O)(C(=O)CO)CC3OC1CC(N)C(O)C(C)O1 (centres undefined) + Cc1cncc(-c2nc(NCCc3c[nH]c4ccccc34)c3ncn(C(C)C)c3n2)c1 | 2.79
Nc1ccn(C2OC(CO)C(O)C2(F)F)c(=O)n1 (centres undefined) + Cc1cncc(-c2nc(NCCc3c[nH]c4ccccc34)c3ncn(C(C)C)c3n2)c1 | 7.01

same assay, conditions: second compound 0.316 µM; first compound 0.000316 µM; hits give low values

SMILES | viability, T/C [%]
CC[C@@]1(O)C(=O)OCc2c1cc1n(c2=O)Cc2cc3c(CN(C)C)c(O)ccc3nc2-1 + Cc1cncc(-c2nc(NCCc3c[nH]c4ccccc34)c3ncn(C(C)C)c3n2)c1 | 89.1

same assay, conditions: second compound 0.316 µM; first compound 0.001 µM; hits give low values

SMILES | viability, T/C [%]
CC[C@@]1(O)C(=O)OCc2c1cc1n(c2=O)Cc2cc3c(CN(C)C)c(O)ccc3nc2-1 + Cc1cncc(-c2nc(NCCc3c[nH]c4ccccc34)c3ncn(C(C)C)c3n2)c1 | 92.8

same assay, conditions: second compound 0.316 µM; first compound 0.00316 µM; hits give low values

SMILES | viability, T/C [%]
CC[C@@]1(O)C(=O)OCc2c1cc1n(c2=O)Cc2cc3c(CN(C)C)c(O)ccc3nc2-1 + Cc1cncc(-c2nc(NCCc3c[nH]c4ccccc34)c3ncn(C(C)C)c3n2)c1 | 87.8
Nc1ncn(C2CC(O)C(CO)O2)c(=O)n1 (centres undefined) + Cc1cncc(-c2nc(NCCc3c[nH]c4ccccc34)c3ncn(C(C)C)c3n2)c1 | 84.1

same assay, conditions: second compound 0.316 µM; first compound 0.01 µM; hits give low values

SMILES | viability, T/C [%]
CC[C@@]1(O)C(=O)OCc2c1cc1n(c2=O)Cc2cc3c(CN(C)C)c(O)ccc3nc2-1 + Cc1cncc(-c2nc(NCCc3c[nH]c4ccccc34)c3ncn(C(C)C)c3n2)c1 | 67.4
Nc1ncn(C2CC(O)C(CO)O2)c(=O)n1 (centres undefined) + Cc1cncc(-c2nc(NCCc3c[nH]c4ccccc34)c3ncn(C(C)C)c3n2)c1 | 86.2

same assay, conditions: second compound 0.316 µM; first compound 0.0316 µM; hits give low values

SMILES | viability, T/C [%]
CC[C@@]1(O)C(=O)OCc2c1cc1n(c2=O)Cc2cc3c(CN(C)C)c(O)ccc3nc2-1 + Cc1cncc(-c2nc(NCCc3c[nH]c4ccccc34)c3ncn(C(C)C)c3n2)c1 | 49.6
COc1cc(C2c3cc4c(cc3C(OC3OC5COC(C)OC5C(O)C3O)C3COC(=O)C23)OCO4)cc(OC)c1O (centres undefined) + Cc1cncc(-c2nc(NCCc3c[nH]c4ccccc34)c3ncn(C(C)C)c3n2)c1 | 78.7
COc1cccc2c1C(=O)c1c(O)c3c(c(O)c1C2=O)CC(O)(C(=O)CO)CC3OC1CC(N)C(O)C(C)O1 (centres undefined) + Cc1cncc(-c2nc(NCCc3c[nH]c4ccccc34)c3ncn(C(C)C)c3n2)c1 | 30.6
Nc1ccn(C2OC(CO)C(O)C2(F)F)c(=O)n1 (centres undefined) + Cc1cncc(-c2nc(NCCc3c[nH]c4ccccc34)c3ncn(C(C)C)c3n2)c1 | 10.2
Nc1ncn(C2CC(O)C(CO)O2)c(=O)n1 (centres undefined) + Cc1cncc(-c2nc(NCCc3c[nH]c4ccccc34)c3ncn(C(C)C)c3n2)c1 | 88.1

same assay, conditions: second compound 0.316 µM; first compound 0.1 µM; hits give low values

SMILES | viability, T/C [%]
CC[C@@]1(O)C(=O)OCc2c1cc1n(c2=O)Cc2cc3c(CN(C)C)c(O)ccc3nc2-1 + Cc1cncc(-c2nc(NCCc3c[nH]c4ccccc34)c3ncn(C(C)C)c3n2)c1 | 23.7
COc1cc(C2c3cc4c(cc3C(OC3OC5COC(C)OC5C(O)C3O)C3COC(=O)C23)OCO4)cc(OC)c1O (centres undefined) + Cc1cncc(-c2nc(NCCc3c[nH]c4ccccc34)c3ncn(C(C)C)c3n2)c1 | 73.6
COc1cccc2c1C(=O)c1c(O)c3c(c(O)c1C2=O)CC(O)(C(=O)CO)CC3OC1CC(N)C(O)C(C)O1 (centres undefined) + Cc1cncc(-c2nc(NCCc3c[nH]c4ccccc34)c3ncn(C(C)C)c3n2)c1 | 23.2
Nc1ccn(C2OC(CO)C(O)C2(F)F)c(=O)n1 (centres undefined) + Cc1cncc(-c2nc(NCCc3c[nH]c4ccccc34)c3ncn(C(C)C)c3n2)c1 | 9.23
Nc1ncn(C2CC(O)C(CO)O2)c(=O)n1 (centres undefined) + Cc1cncc(-c2nc(NCCc3c[nH]c4ccccc34)c3ncn(C(C)C)c3n2)c1 | 79.3

same assay, conditions: second compound 0.316 µM; first compound 0.316 µM; hits give low values

SMILES | viability, T/C [%]
COc1cc(C2c3cc4c(cc3C(OC3OC5COC(C)OC5C(O)C3O)C3COC(=O)C23)OCO4)cc(OC)c1O (centres undefined) + Cc1cncc(-c2nc(NCCc3c[nH]c4ccccc34)c3ncn(C(C)C)c3n2)c1 | 64.8
COc1cccc2c1C(=O)c1c(O)c3c(c(O)c1C2=O)CC(O)(C(=O)CO)CC3OC1CC(N)C(O)C(C)O1 (centres undefined) + Cc1cncc(-c2nc(NCCc3c[nH]c4ccccc34)c3ncn(C(C)C)c3n2)c1 | 9.81
Nc1ccn(C2OC(CO)C(O)C2(F)F)c(=O)n1 (centres undefined) + Cc1cncc(-c2nc(NCCc3c[nH]c4ccccc34)c3ncn(C(C)C)c3n2)c1 | 9.06
Nc1ncn(C2CC(O)C(CO)O2)c(=O)n1 (centres undefined) + Cc1cncc(-c2nc(NCCc3c[nH]c4ccccc34)c3ncn(C(C)C)c3n2)c1 | 78.6

same assay, conditions: second compound 0.316 µM; first compound 1 µM; hits give low values

SMILES | viability, T/C [%]
COc1cc(C2c3cc4c(cc3C(OC3OC5COC(C)OC5C(O)C3O)C3COC(=O)C23)OCO4)cc(OC)c1O (centres undefined) + Cc1cncc(-c2nc(NCCc3c[nH]c4ccccc34)c3ncn(C(C)C)c3n2)c1 | 35.9
COc1cccc2c1C(=O)c1c(O)c3c(c(O)c1C2=O)CC(O)(C(=O)CO)CC3OC1CC(N)C(O)C(C)O1 (centres undefined) + Cc1cncc(-c2nc(NCCc3c[nH]c4ccccc34)c3ncn(C(C)C)c3n2)c1 | 0.2
Nc1ccn(C2OC(CO)C(O)C2(F)F)c(=O)n1 (centres undefined) + Cc1cncc(-c2nc(NCCc3c[nH]c4ccccc34)c3ncn(C(C)C)c3n2)c1 | 8.59
Nc1ncn(C2CC(O)C(CO)O2)c(=O)n1 (centres undefined) + Cc1cncc(-c2nc(NCCc3c[nH]c4ccccc34)c3ncn(C(C)C)c3n2)c1 | 70.7

same assay, conditions: second compound 0.316 µM; first compound 3.16 µM; hits give low values

SMILES | viability, T/C [%]
COc1cc(C2c3cc4c(cc3C(OC3OC5COC(C)OC5C(O)C3O)C3COC(=O)C23)OCO4)cc(OC)c1O (centres undefined) + Cc1cncc(-c2nc(NCCc3c[nH]c4ccccc34)c3ncn(C(C)C)c3n2)c1 | 24.7
COc1cccc2c1C(=O)c1c(O)c3c(c(O)c1C2=O)CC(O)(C(=O)CO)CC3OC1CC(N)C(O)C(C)O1 (centres undefined) + Cc1cncc(-c2nc(NCCc3c[nH]c4ccccc34)c3ncn(C(C)C)c3n2)c1 | 0.66
Nc1ccn(C2OC(CO)C(O)C2(F)F)c(=O)n1 (centres undefined) + Cc1cncc(-c2nc(NCCc3c[nH]c4ccccc34)c3ncn(C(C)C)c3n2)c1 | 9.76

same assay, conditions: second compound 0.316 µM; first compound 10 µM; hits give low values

SMILES | viability, T/C [%]
COc1cc(C2c3cc4c(cc3C(OC3OC5COC(C)OC5C(O)C3O)C3COC(=O)C23)OCO4)cc(OC)c1O (centres undefined) + Cc1cncc(-c2nc(NCCc3c[nH]c4ccccc34)c3ncn(C(C)C)c3n2)c1 | 12.9
COc1cccc2c1C(=O)c1c(O)c3c(c(O)c1C2=O)CC(O)(C(=O)CO)CC3OC1CC(N)C(O)C(C)O1 (centres undefined) + Cc1cncc(-c2nc(NCCc3c[nH]c4ccccc34)c3ncn(C(C)C)c3n2)c1 | 2.98
Nc1ccn(C2OC(CO)C(O)C2(F)F)c(=O)n1 (centres undefined) + Cc1cncc(-c2nc(NCCc3c[nH]c4ccccc34)c3ncn(C(C)C)c3n2)c1 | 6.34

same assay, conditions: second compound 1 µM; first compound 0.000316 µM; hits give low values

SMILES | viability, T/C [%]
CC[C@@]1(O)C(=O)OCc2c1cc1n(c2=O)Cc2cc3c(CN(C)C)c(O)ccc3nc2-1 + Cc1cncc(-c2nc(NCCc3c[nH]c4ccccc34)c3ncn(C(C)C)c3n2)c1 | 91

same assay, conditions: second compound 1 µM; first compound 0.001 µM; hits give low values

SMILES | viability, T/C [%]
CC[C@@]1(O)C(=O)OCc2c1cc1n(c2=O)Cc2cc3c(CN(C)C)c(O)ccc3nc2-1 + Cc1cncc(-c2nc(NCCc3c[nH]c4ccccc34)c3ncn(C(C)C)c3n2)c1 | 90.6

same assay, conditions: second compound 1 µM; first compound 0.00316 µM; hits give low values

SMILES | viability, T/C [%]
CC[C@@]1(O)C(=O)OCc2c1cc1n(c2=O)Cc2cc3c(CN(C)C)c(O)ccc3nc2-1 + Cc1cncc(-c2nc(NCCc3c[nH]c4ccccc34)c3ncn(C(C)C)c3n2)c1 | 80.9
